Each structure is given as a SMILES string.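 These data come from cells grown in 96-well plates and exposed to compound for 48 hours at five concentrations. TGI is the concentration that stops growth completely.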

The assay deals with P388/ADR leukemia. The assay is described as follows: NCI tumour cell line growth inhibition, 48 h.

Regarding `COc1cc(C[C@H]2c3cc(OC)c(OC)cc3CCN2C)c(Oc2cc3c(cc2OC)-c2c(OC)c(OC)cc4c2[C@H](C3)N(C)CC4)cc1OC`, the TGI was determined as 27.9 µM.

In turn, `CC1CCC(NC(=O)N(CCCl)N=O)CC1` (configuration not stated) came in with a TGI of 56.8 µM.

For the origin of these results see PubChem BioAssay (NCI).
